Data published in patent US10400010B2, “Structure-based peptide inhibitors of P53 aggregation as a new approach to cancer therapeutics” (THE REGENTS OF THE UNIVERSITY OF CALIFORNIA, priority 2013, dated 2019).
“Also recorded” adds a separate entry of the source.

How the values were obtained:
[1] = Serum concentration by MRM mass spectrometry (pharmacokinetic profile); format: in vivo, Nude mice
Method: Nude mice were injected in the flank with OVCAR-3 cells and the resulting xenografts were allowed to grow for two weeks. The mice were then treated for three days via IP with 15 mg/kg of INH-1R CPP peptide or scrambled control peptide. They were divided in groups of two and sacrificed at 1, 2, 4, 8, 12 and 24 hours post final peptide injection. Two naïve mice were sacrificed before treatment to obtain a reference value. Peak serum concentration of INH-1R CPP (as well as control peptide) was detected at 1 hour post injection. Average of two mice are shown.
The peptide concentration decreased to approximately 0.3 μM 2 hours post infusion, and remained stable for up to 12 hours (FIG. 10). Given the relative stability of the peptide in serum, IV administration is an acceptable alternative route of administration.

[2] = test system: cancer cells bearing misfolded/aggregation-prone mutant p53; experiment: Cell viability, standard MTS assay, 2D culture; format: cell-based; conditions: 24 hours
Method: (§1) B. and C. show one representative case of primary cells from ovarian cancer.
INH-1R caused cell death in a dose dependent manner with less than 50% of cancer cells surviving after only 24 hours of treatment with a dose of 10 μM in a 2D culture system as detected by a standard MTS assay (FIG. 7A). […] In this case cells were plated in 1:1 mixture of PrEGM:matrigel. After cell layer solidified, cells were overlaid with warm PrEGM media containing either the inhibitor or a scrambled control peptide at concentration ranging from 0.1 to 10 μM for 5 to 7 days.

OVCAR-3 cells [3] = experiment: Cell death by FACS (cell size and granularity); format: cell-based; conditions: 10 μM, 24 hours
Method: Cells treated for 24 hours with either INH-1R or a control peptide were trypsinized and analyzed by FACS.

[4] = molecular target: T1, p53 aggregation (segment p53252-258, LTIITLE) (Homo sapiens, UniProt P04637); experiment: In vitro Thioflavin T aggregation assay; format: biochemical; conditions: different concentrations, down to molar ratio 1 inhibitor to 10 p53 molecules
T1 construct: made in house; host or cells: chemical synthesis
Source text: The aggregation of p53 is monitored via Thioflavin T assay: an increase in Thioflavin T fluorescence is detected over time due to the formation of increasing amounts of amyloid to which the dye can specifically bind. […] The sequence of this segment, LTIITLE, is SEQ ID NO: 21.
One representative in vitro assay is the thioflavin T assay shown in FIG. 3 (Naiki, H., Higuchi, K., Hosokawa, M., and Takeda, T. (1989) Fluorometric determination of amyloid fibrils in vitro using the fluorescent dye, thioflavine T. Anal. Biochem., 177, 244-249). The assay can be performed using a target sequence peptide, such as LTIITLE (SEQ ID NO: 21), or it can be performed using full-length p53 (such as recombinant p53). In both cases, the peptide (e.g. LTIITLE) (SEQ ID NO: 21) or the p53 is placed in solution with thioflavin T and increasing concentrations of inhibitor. The assay is performed in a multiwall plate (e.g. a 384 well plate). This dye is amyloid specific and is only fluorescent when bound to amyloid aggregates. The fluorescence is measured over time, e.g. with a plate reader. Inhibition is detected as a delay in the onset of aggregation and/or less total amount of aggregates formed.
The designed inhibitors were synthesized and tested in an in vitro Thioflavin T aggregation assay (FIG. 3).

OVCAR-3 cells [5] = experiment: Apoptosis and necrosis, combined Hoechst/PI/YO-PRO-1 stain; format: cell-based; conditions: 24 hours
Method: OVCAR-3 cells were treated for 24 hours with the indicated concentrations of either INH-1R CPP or a scrambled inhibitor sequence. Hoechst (blue) stains all nuclei while YO-PRO-1 (green) only stains apoptotic cells and propidium iodide (red) stains late apoptotic/necrotic cells.

[6] = test system: OVCAR-3 cells bearing the aggregation prone p53 R248Q mutation (xenograft); experiment: OVCAR-3 xenograft tumor proliferation in vivo; design: species or system NOD/SCID mice
Method: A. Images of the xenografts from mice (n=3 for each group, one mouse had 2 xenografts) treated with INH-1R CPP, a scrambled peptide control, or vehicle for 14 days. […] C. Tumor volume was estimated daily.
In our in vivo studies, we attempted to mimic a post-surgical debulking situation in which patients with minimal residual tumor mass are administered chemotherapy. NOD/SCID mice were injected subcutaneously with OVCAR-3 cells bearing the aggregation prone p53 R248Q mutation and treated intraperitoneally with 15 mg/kg of either INH-1R as a single therapeutic agent, a control scrambled peptide, or vehicle daily for 14 days (FIG. 9).

[7] = test system: stable cell line derived from an ovarian cancer tumor (PA40 cells); experiment: p53 re-localization and refolding, DO-1 and PAb240 antibody stain; format: cell-based
Source text: A stable cell line derived from an ovarian cancer tumor is stained with the commercially available DO-1 antibody which recognizes any p53, irrespective of its structural state. […] The PAb240 commercial antibody recognizes misfolded p53, therefore loss of PAb240 antigeneicity reflects a change in the p53 population from misfolded to properly folded, functionally capable protein.
(§2) Properly folded p53 is rapidly degraded in cells as a control mechanism. Misfolded/aggregated p53 cannot be efficiently targeted for degradation therefore protein levels are high in the absence of the inhibitor. This is additional evidence of the ability of the INH-1R to generate a population of folded p53.

[8] = test system: p53 target genes p21 and Mdm2; experiment: Up-regulation of p53 target genes by QPCR or RNAseq; format: cell-based; conditions: tumor cells with p53 misfolding/aggregating mutations
Source text: Specificity and efficacy of INH-1R CPP was confirmed by up-regulation of p53 target genes only in tumor cells containing p53 misfolding/aggregating mutations.

MCF-7 (WT p53) = experiment: p53 re-localization in WT p53 control cells; format: cell-based; conditions: WT p53 bearing cells MCF 7
Source text: The structure-guided, rationally designed p53 amyloid inhibitors of the invention specifically target those cancer cells bearing p53 molecules having an aberrant conformation (e.g. aggregated or misfolded p53). […] We then tested the inhibitor on established cancer cell lines as well as on primary cells derived from serous ovarian cancer patients in order to confirm the clinical relevance of our findings. Our inhibitor is designed to specifically target those tumor cells expressing an altered misfolded form of p53 and should have no effect on cells bearing functional, properly folded p53 or aggregation-incompetent p53 mutants. To confirm this, we included several controls. Three established cell lines, one bearing WT p53 (MCF-7) and two which were previously characterized for their p53 aggregation status, one with a non-aggregating mutation (WiDr) and one with a p53 aggregation prone mutation (Detroit 562), were used as negative and positive controls. One of the effects of the inhibitor was to cause re-localization of p53 from the cytosolic compartment to the nucleus (FIG. 5).

OVCAR-3 cell lysates = experiment: p53 levels in cell lysates by Western Blot; format: cell-based; conditions: 0, 1, 5 or 10 μM, 24 hours
Source text: The properly folded p53 (see FIG. 6) can now be degraded as is WT p53. The hyperstability due to misfolding/aggregation is lost, and the protein turnover is fast.
as §2

[9] = test system: cancer cell lines (OVCAR-3, CAOV-3, WiDr, Detroit 562) and primary cells from ovarian cancer patients; experiment: Cell entry and co-localization of FITC labeled inhibitor by fluorescence microscopy; format: cell-based, human; conditions: 24 hours
Source text: INH-1R CPP was covalently linked to a FITC fluorescent label and added to different cancer cell lines or primary cells directly obtained from ovarian cancer patients (as depicted here). […] The cell nuclei are stained with Hoechst 33342 (blue), while p53 is recognized by an anti-p53 antibody and stained in red. […] Protein aggregates are stained with the commercially available OC antibody (in red).
To render the inhibitors cell permeable, the inventors fused the peptide-inhibitor panel to a nine-residue poly arginine tag through a three-residue linker, of sequence RPI, derived from endogenous p53 sequence. To confirm their ability to enter cells, the cell penetrating INH-1R inhibitor was linked to a FITC moiety in order to detect the intracellular localization of the probe by fluorescence microscopy (FIG. 4). We treated different cancer cell lines, including but not limited to OVCAR-3, CAOV-3, WiDr, Detroit 562 as well as primary cells derived from cancer patients with the FITC labeled inhibitor for 24 hours. After extensive washes to remove unbound inhibitors, the cells were fixed in formaldehyde and p53 was stained using a commercially available p53 antibody. […] Additionally, the inhibitor was found co-localized with protein aggregates as stained by the conformation specific antibody OC (Kayed et al, 2007, FIG. 4B).

[10] = test system: primary cells from ovarian cancer; experiment: Apoptosis (AnnexinV stain) and proliferation (Ki67 stain); format: cell-based; conditions: increasing dosage
Source text: as §1

Time serum concentration remained stable ([1]; 15 mg/kg IP) | Tmax ([1]; nude, mouse, serum, 15 mg/kg IP for three days, read-out: Time of peak serum concentration post injection) [h] | Cmax ([1]; nude, mouse, serum, 15 mg/kg IP, 1 hour after injection, read-out: Serum peak concentration) [nM] | level at time molar at 2 h ([1]; nude, mouse, serum, 15 mg/kg IP, 2 hours, read-out: Serum concentration 2 hours post infusion) [nM] | SMILES | Cancer cells surviving (cell viability, MTS) ([2]; 10 μM, 2D culture) | Cell size and granularity (FACS) (OVCAR-3 cells [3]) | Inhibition of p53 aggregation (Thioflavin T fluorescence over time) [4] | Apoptosis and necrosis (Hoechst/PI/YO-PRO-1 stain) (OVCAR-3 cells [5]) | p53 target genes MDM2 and p21 in residual tumor tissue ([6]; 15 mg/kg IP daily for 14 days) | Xenograft mass reduction in weight ([6]; 15 mg/kg intraperitoneally daily for 14 days) [%] | Recognition of p53 by PAb240 (misfolded p53) [7] | Up-regulation of p53 target genes [8] | Re-localization of p53 from cytosol to nucleus (MCF-7 (WT p53)) | Cancer cells surviving (cell viability, MTS) ([2]; 10 µM) | Total amount of p53 (OVCAR-3 cell lysates) | Ability to enter cells (intracellular localization) [9] | Apoptosis (AnnexinV stain) [10] | Cell proliferation (Ki67 stain) [10]
up to 12 hours | 1 | ~1200 | ~300 | CC[C@H](C)[C@H](NC(=O)[C@H](CCCNC(=N)N)NC(=O)[C@@H](NC(=O)[C@H](CC(C)C)NC(=O)[C@@H](NC(=O)[C@@H]1CCCN1C(=O)[C@H](CCCNC(=N)N)NC(=O)[C@H](CCCNC(=N)N)NC(=O)[C@H](CCCNC(=N)N)NC(=O)[C@H](CCCNC(=N)N)NC(=O)[C@H](CCCNC(=N)N)NC(=O)[C@H](CCCNC(=N)N)NC(=O)[C@H](CCCNC(=N)N)NC(=O)[C@H](CCCNC(=N)N)NC(=O)[C@H](CCCNC(=N)N)NC(=O)[C@@H](N)CCCNC(=N)N)[C@@H](C)CC)[C@@H](C)O)C(=O)N[C@H](C(=O)N[C@@H](CC(C)C)C(=O)N[C@@H](CCC(=O)O)C(=O)O)[C@@H](C)O [INH-1R CPP, RRRRRRRRRRPILTRITLE] | Dose dependent reduction of cell viability |  |  |  |  |  |  |  |  |  |  |  |  | 
 |  |  |  | CC[C@H](C)[C@H](NC(=O)[C@H](CCCNC(=N)N)NC(=O)[C@@H](NC(=O)[C@H](CC(C)C)NC(=O)[C@@H](NC(=O)[C@@H]1CCCN1C(=O)[C@H](CCCNC(=N)N)NC(=O)[C@H](CCCNC(=N)N)NC(=O)[C@H](CCCNC(=N)N)NC(=O)[C@H](CCCNC(=N)N)NC(=O)[C@H](CCCNC(=N)N)NC(=O)[C@H](CCCNC(=N)N)NC(=O)[C@H](CCCNC(=N)N)NC(=O)[C@H](CCCNC(=N)N)NC(=O)[C@H](CCCNC(=N)N)NC(=O)[C@@H](N)CCCNC(=N)N)[C@@H](C)CC)[C@@H](C)O)C(=O)N[C@H](C(=O)N[C@@H](CC(C)C)C(=O)N[C@@H](CCC(=O)O)C(=O)O)[C@@H](C)O [INH-1R] |  | a decrease in cell size and increase in granularity | delay the aggregation onset and lower the total amount of aggregates present, in a concentration dependent fashion; also recorded: delayed the onset of aggregation and lowered the amount of aggregates present at all concentrations tested | Apoptosis as well as necrosis were induced specifically | pronounced p21 and MDM2 activation | 75 | failed to be recognized by the antibody PAb240 | up-regulation of p53 target genes only in tumor cells bearing aggregation-prone mutations | not observed | less than 50% | decreasing in a dose dependent manner | able to penetrate the cell membrane, but also to actually enter the nucleus and co-localize with its target, p53 | increase in apoptosis | decrease in cell proliferation
